Test results from patent US20250147039A1, “Compounds for complexation of rare earth elements and/or s-, p-, d- block metals, their coordination compounds, peptide conjugates, method of their preparation and use thereof” (USTAV ORGANICKE CHEMIE A BIOCHEMIE AV CR V.V.I., priority 2021, published 2025).

Columns and labels:
[1] = Formation of 1,5-cz-[Ln(Lig)] from Lig and Ln^III ions (metal dependent click-zip), MOPS/NaOH buffer pH 7.0, analytical HPLC (Charts 1, 2); conditions: MOPS/NaOH buffer pH 7.0
[2] = Formation of 1,5-cz-[M(Lig)] from Lig and M^III ions (metal dependent click-zip) (Charts 4, 5); assay type: physicochemical; conditions: MOPS/NaOH buffer pH 7.0; for conversion to 1,5-cz-[M(Lig)], Sc^III / conversion to 1,5-cz-[M(Lig)], Y^III: TD728, TD827 in 50% i-PrOH; for conversion to 1,5-cz-[M(Lig)], Y^III: TD714 sum of two diastereoisomers

## [N-]=[N+]=NCc1cccc(CN2CCN(CC(=O)O)CCN(Cc3cccc(C#Cc4ccccc4)n3)CCN(CC(=O)O)CC2)n1 [TD944]
[1]; after 1 week at 80° C.
  conversion to 1,5-cz-[Ln(Lig)], Ce^III: 3%
  conversion to 1,5-cz-[Ln(Lig)], Dy^III: 51%
  conversion to 1,5-cz-[Ln(Lig)], Er^III: 84%
  conversion to 1,5-cz-[Ln(Lig)], Eu^III: 19%
  conversion to 1,5-cz-[Ln(Lig)], Gd^III: 23%
  conversion to 1,5-cz-[Ln(Lig)], Ho^III: 68%
  conversion to 1,5-cz-[Ln(Lig)], La^III: 4%
  conversion to 1,5-cz-[Ln(Lig)], Lu^III: 94%
  conversion to 1,5-cz-[Ln(Lig)], Nd^III: 8%
  conversion to 1,5-cz-[Ln(Lig)], Pr^III: 6%
  conversion to 1,5-cz-[Ln(Lig)], Sm^III: 16%
  conversion to 1,5-cz-[Ln(Lig)], Tb^III: 37%
  conversion to 1,5-cz-[Ln(Lig)], Tm^III: 93%
  conversion to 1,5-cz-[Ln(Lig)], Yb^III: 95%
[1]; after 1 hour at 80° C.
  conversion to 1,5-cz-[Ln(Lig)], Ce^III: 0%
  conversion to 1,5-cz-[Ln(Lig)], Dy^III: 0%
  conversion to 1,5-cz-[Ln(Lig)], Er^III: 1%
  conversion to 1,5-cz-[Ln(Lig)], Eu^III: 0%
  conversion to 1,5-cz-[Ln(Lig)], Gd^III: 0%
  conversion to 1,5-cz-[Ln(Lig)], Ho^III: 1%
  conversion to 1,5-cz-[Ln(Lig)], La^III: 0%
  conversion to 1,5-cz-[Ln(Lig)], Lu^III: 2%
  conversion to 1,5-cz-[Ln(Lig)], Nd^III: 0%
  conversion to 1,5-cz-[Ln(Lig)], Pr^III: 0%
  conversion to 1,5-cz-[Ln(Lig)], Sm^III: 0%
  conversion to 1,5-cz-[Ln(Lig)], Tb^III: 0%
  conversion to 1,5-cz-[Ln(Lig)], Tm^III: 1%
  conversion to 1,5-cz-[Ln(Lig)], Yb^III: 2%
[2]; 1 week at 80° C.
  conversion to 1,5-cz-[M(Lig)], Sc^III: 4%
  conversion to 1,5-cz-[M(Lig)], Y^III: 63%
[2]; 1 hour at 80° C.
  conversion to 1,5-cz-[M(Lig)], Sc^III: 0%
  conversion to 1,5-cz-[M(Lig)], Y^III: 1%

## CC(C)(C#Cc1cccc(CN2CCN(CC(=O)O)CCN(Cc3cccc(CN=[N+]=[N-])n3)CCN(CC(=O)O)CC2)n1)NC(=O)OC(C)(C)C [TD1105]
[1]; after 1 week at 80° C.
  conversion to 1,5-cz-[Ln(Lig)] with hydrolysed group in the side chain, Ce^III: 8%
  conversion to 1,5-cz-[Ln(Lig)], Ce^III: 0%
  conversion to 1,5-cz-[Ln(Lig)] with hydrolysed group in the side chain, Dy^III: 82%
  conversion to 1,5-cz-[Ln(Lig)], Dy^III: 0%
  conversion to 1,5-cz-[Ln(Lig)] with hydrolysed group in the side chain, Er^III: 92%
  conversion to 1,5-cz-[Ln(Lig)], Er^III: 1%
  conversion to 1,5-cz-[Ln(Lig)] with hydrolysed group in the side chain, Eu^III: 49%
  conversion to 1,5-cz-[Ln(Lig)], Eu^III: 1%
  conversion to 1,5-cz-[Ln(Lig)] with hydrolysed group in the side chain, Gd^III: 57%
  conversion to 1,5-cz-[Ln(Lig)], Gd^III: 2%
  conversion to 1,5-cz-[Ln(Lig)] with hydrolysed group in the side chain, Ho^III: 87%
  conversion to 1,5-cz-[Ln(Lig)], Ho^III: 1%
  conversion to 1,5-cz-[Ln(Lig)] with hydrolysed group in the side chain, La^III: 11%
  conversion to 1,5-cz-[Ln(Lig)], La^III: 0%
  conversion to 1,5-cz-[Ln(Lig)] with hydrolysed group in the side chain, Lu^III: 98%
  conversion to 1,5-cz-[Ln(Lig)], Lu^III: 1%
  conversion to 1,5-cz-[Ln(Lig)] with hydrolysed group in the side chain, Nd^III: 23%
  conversion to 1,5-cz-[Ln(Lig)], Nd^III: 0%
  conversion to 1,5-cz-[Ln(Lig)] with hydrolysed group in the side chain, Pr^III: 21%
  conversion to 1,5-cz-[Ln(Lig)], Pr^III: 0%
  conversion to 1,5-cz-[Ln(Lig)] with hydrolysed group in the side chain, Sm^III: 44%
  conversion to 1,5-cz-[Ln(Lig)], Sm^III: 1%
  conversion to 1,5-cz-[Ln(Lig)] with hydrolysed group in the side chain, Tb^III: 74%
  conversion to 1,5-cz-[Ln(Lig)], Tb^III: 1%
  conversion to 1,5-cz-[Ln(Lig)] with hydrolysed group in the side chain, Tm^III: 94%
  conversion to 1,5-cz-[Ln(Lig)], Tm^III: 1%
  conversion to 1,5-cz-[Ln(Lig)] with hydrolysed group in the side chain, Yb^III: 97%
  conversion to 1,5-cz-[Ln(Lig)], Yb^III: 1%
[1]; after 1 hour at 80° C.
  conversion to 1,5-cz-[Ln(Lig)] with hydrolysed group in the side chain, Ce^III: 0%
  conversion to 1,5-cz-[Ln(Lig)], Ce^III: 0%
  conversion to 1,5-cz-[Ln(Lig)] with hydrolysed group in the side chain, Dy^III: 0%
  conversion to 1,5-cz-[Ln(Lig)], Dy^III: 2%
  conversion to 1,5-cz-[Ln(Lig)] with hydrolysed group in the side chain, Er^III: 2%
  conversion to 1,5-cz-[Ln(Lig)], Er^III: 4%
  conversion to 1,5-cz-[Ln(Lig)] with hydrolysed group in the side chain, Eu^III: 0%
  conversion to 1,5-cz-[Ln(Lig)], Eu^III: 1%
  conversion to 1,5-cz-[Ln(Lig)] with hydrolysed group in the side chain, Gd^III: 0%
  conversion to 1,5-cz-[Ln(Lig)], Gd^III: 1%
  conversion to 1,5-cz-[Ln(Lig)] with hydrolysed group in the side chain, Ho^III: 1%
  conversion to 1,5-cz-[Ln(Lig)], Ho^III: 3%
  conversion to 1,5-cz-[Ln(Lig)] with hydrolysed group in the side chain, La^III: 0%
  conversion to 1,5-cz-[Ln(Lig)], La^III: 0%
  conversion to 1,5-cz-[Ln(Lig)] with hydrolysed group in the side chain, Lu^III: 9%
  conversion to 1,5-cz-[Ln(Lig)], Lu^III: 8%
  conversion to 1,5-cz-[Ln(Lig)] with hydrolysed group in the side chain, Nd^III: 0%
  conversion to 1,5-cz-[Ln(Lig)], Nd^III: 1%
  conversion to 1,5-cz-[Ln(Lig)] with hydrolysed group in the side chain, Pr^III: 0%
  conversion to 1,5-cz-[Ln(Lig)], Pr^III: 0%
  conversion to 1,5-cz-[Ln(Lig)] with hydrolysed group in the side chain, Sm^III: 0%
  conversion to 1,5-cz-[Ln(Lig)], Sm^III: 1%
  conversion to 1,5-cz-[Ln(Lig)] with hydrolysed group in the side chain, Tb^III: 0%
  conversion to 1,5-cz-[Ln(Lig)], Tb^III: 2%
  conversion to 1,5-cz-[Ln(Lig)] with hydrolysed group in the side chain, Tm^III: 3%
  conversion to 1,5-cz-[Ln(Lig)], Tm^III: 5%
  conversion to 1,5-cz-[Ln(Lig)] with hydrolysed group in the side chain, Yb^III: 5%
  conversion to 1,5-cz-[Ln(Lig)], Yb^III: 7%
[2]; 1 week at 80° C.
  conversion to 1,5-cz-[Ln(Lig)] with hydrolysed group in the side chain, Sc^III: 60%
  conversion to 1,5-cz-[Ln(Lig)] with hydrolysed group in the side chain, Y^III: 87%
  conversion to 1,5-cz-[M(Lig)], Sc^III: 0%
  conversion to 1,5-cz-[M(Lig)], Y^III: 0%
[2]; 1 hour at 80° C.
  conversion to 1,5-cz-[Ln(Lig)] with hydrolysed group in the side chain, Sc^III: 0%
  conversion to 1,5-cz-[Ln(Lig)] with hydrolysed group in the side chain, Y^III: 1%
  conversion to 1,5-cz-[M(Lig)], Sc^III: 0%
  conversion to 1,5-cz-[M(Lig)], Y^III: 2%
